Measurements published in patent US5273991A, “Imidazole-containing compositions and methods of use thereof analogs of distamycin” (Research Corporation Technologies, Inc., priority 1992, dated 1993).
Where two headings read alike, the source gives them in different places. One block for each compound: values may come before it.

Tests used:
[1] = test system: calf thymus DNA; assay: ethidium displacement assay, calf thymus DNA; format: binding
Description: (§1) The ethidium displacement assay is based on the fact that ethidium binding to DNA causes a large (approximately 25 fold) florescence enhancement as a result of the hydrophobic environment surrounding the ethidium molecule. Displacement of ethidium results in decreased fluorescence, and thus binding constants of drugs to DNA can be estimated and compared by measuring the loss of fluorescence as a function of added drug. The drug concentration which produces 50% inhibition of florescence is approximately inversely proportional to the apparent binding constant.
(§2) The relative DNA binding constants (Kapp) of distamycin and Compounds 6-10 to calf thymus DNA, T4 coliphage DNA, poly(dAdT) and poly(dGdC) were determined using the ethidium displacement assay (Morgan et al., 1979). The Kapp of ethidium bromide (Debart et al., 1989) is included for comparison. 25 μL of a 2A260 DNA solution was added to 2 mL of ethidium bromide buffer (250 μL of 1.3 mM ethidium bromidestock, 314.9 mg Tris-HCl, 60.8 mg Tris base and 930/mg of Na2 EDTA.2H2 O in 250 ml H2 O) pH 7.4 and the maximum fluorescence was measured (excitation wavelength=546 nm, emission wavelength=600 nm) at ambient temperature.
(§3) DNA solutions of 2A260 were prepared as follows: T4 coliphage DNA: 10 units of DNA were dissolved in 1 mL of 10 mM sodium phosphate (pH 7.1) and 0.25 mM EDTA buffer to give a 10A260 solution. 0.3 mL of the stock solution were diluted to 1.5 mL with 10 mM sodium phosphate (pH 7.1) and 0.25 mM EDTA buffer to give a 2A260 solution. Calf thymus DNA: 100 units of DNA were dissolved in 5 mL of 10 mM sodium phosphate (pH 7.1) and 0.25 mM EDTA buffer to give a 20A260 solution. 1.5 mL of the stock solution were diluted to 15 mL with 10 mM sodium phosphate (pH 7.1) and 0.25 mM EDTA buffer to give a 2A260 solution. Poly(dA-dT) and Poly(dG-dC) DNA: 100 units of DNA were dissolved in 10 mL of 10 mM sodium phosphate pH 7.1) and 0.25 mM EDTA buffer to give a 10A260 solution. 3 mL of the stock solution were diluted to 15 mL with 10 mM sodium phosphate (pH 7.1) and 0.25 mM EDTA buffer to give a 2A260 solution.
(§4) Aliquots of 10 mM stock drug solution (1 mg of drug to be tested was dissolved with 1 mole equivalent of 0.1M HCl, and then diluted with appropriate volume of distilled water to make a 10 mM solution) were then added to the fluorescing solution and the florescence measured after each addition until a 50% reduction of fluorescence occurred. If the 10 mM stock solution lowered the % fluorescence too quickly, the stock solution was further diluted to 1 mM prior to titration. The apparent binding constant was then calculated from this equation: KEtBr [EtBr]=Kapp [drug], where [drug]=the concentration of drug at a 50% reduction of fluorescence and KEtBr [1×10^7 M^-1 for calf thymus and coliphage T4 DNA^18, 9.5×10^6 M^-1 for poly(dA.dT)^30, and 9.9×10^6 M^-1 for poly(dG.dC)^30 ] and [EtBr] were known. The concentration of ethidium bromide was 1.3 μM. The Kapp values are shown in Table I. In a separate experiment, the Kapp of Compound 5 for calf thymus DNA and poly[dGdC] were determined to be 0.3×10^5 M^-1 and 2.6×10^5 M^-1, respectively. The error in these measurements is ±[…].

[2] = molecular target: poly(dGdC); assay: ethidium displacement assay, poly(dGdC); format: binding
Description: as §1, §2, §3, §4

[3] = test system: human chronic myelogenous leukemic K562 cells; assay: growth inhibition of K562 cells (MTT viability assay); format: cell-based; settings: for IC50: Homo sapiens, K562, 1 hour drug exposure at 37° C., 5-6 days, MTT; for activity against the growth of K562 cells: in words
Protocol: The ability of the compounds of the present invention to inhibit the growth of human chronic myelogenous leukemic K562 cells was determined as follows.
The incubation was terminated by centrifugation (5 minutes, 300 g) and the cells washed once with drug-free medium.
Following the appropriate drug treatment, the cells were transferred to 96-well microtiter plates, 10^4 cells per well, 8 wells per sample. Plates were then kept in the dark at 37° C. in a humidified atmosphere containing 5% CO2. […] Following incubation of the plates of 5-6 days (to allow control cells to increase in the number by 10 fold) 20 μL of a 5 mg/mL solution of MTT in phosphate buffered saline was added to each well and the plates further incubated for 5 h. The plates were then centrifuged for 5 minutes at 300 g and the bulk of the medium pipetted from the cell pellet leaving 10-20 μL per well. 200 μL DMSO was added to each well and the samples agitated to ensure complete mixing. The optical density was then read at a wavelength of 550 nm on a Titertek Multiscan ELISA plate reader and the dose-response curve constructed.

[4] = test system: calf thymus DNA; assay: UV-dialysis study (covalent retention on DNA); format: binding; settings: 24 h incubation at room temperature; 20-26 hours dialysis; pH 7.1
Description: The compounds of the present invention are useful as anticancer agents. Although the biological mechanism which results in anticancer activity is not fully understood, the compounds of the subject invention are capable of binding to the minor groove of double-stranded DNA and, unlike distamycin and netropsin, can tolerate GC-containing DNA. Accordingly, the DNA alkylating moiety of the compounds of the present invention can be directed to the minor groove of GC-containing regions of double-stranded DNA. One of ordinary skill in the art can determine the DNA alkylating ability of the compounds of the present invention by art-recognized methods. The formation of an irreversible adduct of DNA and a compound of the present invention is defined herein as a measure of the DNA alkylating ability of the subject compounds. The formation of an irreversible adduct can be determined by art-recognized methods. For example, a solution containing DNA and a compound of the present invention can be exhaustively dialyzed under conditions which allow unbound drug to pass out of the dialysis bag. The percentage of the compound which has been retained in the dialysis bag is considered to be covalently bound to the DNA, and is determined by comparing the UV absorption spectrum of the compound/DNA solution before and after exhaustive dialysis.
0.5 mL of 2A260 calf thymus DNA was diluted to 2 mL with 10 mM sodium phosphate and 0.25 mM EDTA buffer, pH 7.1. Four aliquots (3 μL each) of a 1 mM stock drug solution in distilled water were added to the DNA solution and a UV absorption spectrum (300-320) was recorded after each addition. The drug/DNA solution was incubated for 24 h at room temperature and another UV spectrum was recorded. The drug/DNA solution was then transferred into a dialysis bag and the dialysis bag was suspended in 30 mL of 10 mM sodium phosphate and 0.25 mM EDTA buffer, pH, 7.1, at room temperature. After 20-26 hours, the […] spectrum of 2 mL of the buffer outside the dialysis bag was recorded. The absorbance of the drug peak was converted to concentration by the Beer-Lambert equation, and the data was presented as percent initial concentration. Under these conditions, substantial amounts of Compounds 6 (55±5%), 7 (45±5%), 8 (85±5%) and 10 (100±5%) are retained in the dialysis bag, while only 29±5% of a formamido analog^1 is retained.

[5] = test system: T4 coliphage DNA; assay: ethidium displacement assay, T4 coliphage DNA; format: binding; settings: ± 0.02 × 10^5 M^-1, pH 7.4
Description: as §1
The apparent binding constants for T4 coliphage DNA are an indicator of the minor groove selectivity of the compounds of the present invention. The major groove of T4 coliphage DNA is blocked by α-glycosylation of the 5-hydroxymethylcytidine residues; therefore, the non-intercalating agents that bind to T4 coliphage DNA must interact in the minor groove [Lown (1982) Acc. Chem. Res., 15, 381].
as §2, §3, §4

[6] = molecular target: poly(dAdT); assay: ethidium displacement assay, poly(dAdT); format: binding; settings: ± 0.02 × 10^5 M^-1, pH 7.4
Description: as §1, §2, §3, §4

[7] = test system: minor groove of B-DNA; settings: cited from earlier work
[8] = test system: calf thymus DNA; settings: literature constant, read-out: KEtBr; cited from earlier work
[9] = test system: T4 coliphage DNA; settings: literature constant, read-out: KEtBr; cited from earlier work
[10] = molecular target: poly(dAdT); settings: poly(dA.dT); literature constant; read-out: KEtBr (converted); cited from earlier work
[11] = molecular target: poly(dGdC); settings: poly(dG.dC); literature constant; read-out: KEtBr (converted); cited from earlier work

Compound: CN(C)NC(=O)c1nc(NC(=O)c2nc(NC(=O)c3ccc(N(CCCl)CCCl)cc3)cn2C)cn1C [Compound 5, N-(N',N'-dimethylamino)-1-methyl-4-{4-[4,4-bis(2-chloroethyl)aminobenzamido]-1-methylimidazole-2-carboxamido}imidazole-2-carboxamide]
Kd ([1]; separate experiment, read-out: Kapp (converted)): 33.3 µM
Kd ([2]; poly[dGdC], separate experiment, read-out: Kapp (converted)): 3.85 µM

IC50 [3]: 350 µM
Compound: CN(C)CCNC(=O)c1nc(NC(=O)c2nc(NC(=O)CCl)cn2C)cn1C [Compound 11, N-(N',N'-dimethylaminoethyl)-1-methyl-4-[4-(chloroacetamido)-1-methylimidazole-2-carboxamido)imidazole-2-carboxamide]

IC50 [3]: 400 µM
Compound: CN(C)CCNC(=O)c1nc(NC(=O)c2nc(NC(=O)CBr)cn2C)cn1C [Compound 12, N-(N',N'-dimethylaminoethyl)-1-methyl-4-[4-(bromoacetamido)-1-methylimidazole-2-carboxamido]imidazole-2-carboxamide]

IC50 [3]: > 500 µM
Compound: CN(C)NC(=O)c1nc(NC(=O)c2nc(NC=O)cn2C)cn1C [Compound 13]
activity against the growth of K562 cells [3]: no activity

IC50 [3]: > 500 µM
Compound: CN(C)CCNC(=O)c1nc(NC(=O)c2nc(NC=O)cn2C)cn1C [Compound 14]
activity against the growth of K562 cells [3]: no activity

IC50 [3]: > 500 µM
Compound: CN(C)CCNC(=O)c1nc(NC(=O)c2nc(NC(=O)c3nc(NC=O)cn3C)cn2C)cn1C [Compound 15, N-(N',N'-dimethylaminoethyl)-1-methyl-4-{1-methyl-4-[4-formamido-2-methylimidazole-2-carboxamido]imidazole-2-carboxamido}imidazole-2-carboxamide]
retained in the dialysis bag (percent initial concentration) [4]: 29±5%
activity against the growth of K562 cells [3]: no activity

Compound: Cn1cc(NC(=O)c2cc(NC(=O)c3cc(NC=O)cn3C)cn2C)cc1C(=O)NCCC(=N)N [Distamycin, distamycin]
Association constant Kapp ([1]; ± 0.02 × 10^5 M^-1, pH 7.4): 774000 M⁻¹
Association constant Kapp [5]: 640000 M⁻¹
Association constant Kapp [6]: 3.48e+07 M⁻¹
Association constant Kapp ([2]; poly(dGdC), ± 0.02 × 10^5 M^-1, pH 7.4): 203000 M⁻¹
specific nucleotide sequence bound / preferred [7]: (AT)5

Compound: CC[n+]1c(-c2ccccc2)c2cc(N)ccc2c2ccc(N)cc21 [EtBr, ethidium bromide]
Kd [8]: 0.1 µM
Kd [9]: 0.1 µM
Kd [10]: 0.105 µM
Kd [11]: 0.101 µM

Compound: Cn1cc(NC(=O)c2cc(NC(=O)CN=C(N)N)cn2C)cc1C(=O)NCCC(=N)N [Netropsin, netropsin]
specific nucleotide sequence bound / preferred [7]: (AT)4
